Source: patent US12285407B2, “Bis-indolylmethane derivatives and uses thereof” (The University of The West Indies, priority 2018, dated 2025)
Like-named read-outs stand apart in the source and are kept apart here.

Legend:
[1] = system: Pseudomonas aeruginosa; assay: Adjuvant broth microdilution (antibiotic MIC with SP-BIM at 50 μg/mL); assay type: cell-based; details: antibiotic alone
[2] = system: Escherichia coli; assay: Checkerboard synergy (FICI) of antibiotics with SP-BIM; parameters: MIC SP-BIM 13 only / MIC in combination: Antibiotic: unit not given beside the values; details: for MIC: 24 h
[3] = system: Enterococcus faecium; assay: as above; assay type: cell-based; details: Enterococcus faecium, Enterococcus faecium; for MIC: 24 h, antibiotic alone, read-out: MIC antibiotic only
[4] = system: Staphylococcus aureus; assay: as above; assay type: cell-based; details: Staphylococcus aureus, Staphylococcus aureus; for MIC: 24 h, antibiotic alone, read-out: MIC antibiotic only
[5] = system: Streptococcus pneumoniae; assay: as above; assay type: cell-based; details: for MIC: 24 h, antibiotic alone, read-out: MIC antibiotic only
[6] = system: Bacillus cereus; assay: as above; assay type: cell-based; details: for MIC: 24 h, antibiotic alone, read-out: MIC antibiotic only
[7] = system: Candida albicans; assay: as above; parameters: MIC SP-BIM 13 only / MIC in combination: Antibiotic / MIC antibiotic only: unit not given beside the values
[8] = system: Escherichia coli; assay: microbe, parasite or virus in culture; assay type: cell-based; details: antibiotic alone, Table 6, read-out: MIC of antibiotic, No compound
[9] = system: Streptococcus pneumoniae; assay: Adjuvant broth microdilution (antibiotic MIC with SP-BIM at 50 μg/mL); assay type: cell-based; details: Streptococcus pneumoniae; Streptococcus pneumonia; antibiotic alone; Table 5; read-out: MIC of antibiotic, No compound
[10] = system: Enterobacter cloacae; assay: as above; assay type: cell-based; details: antibiotic alone
[11] = system: Klebsiella pneumoniae; assay: Checkerboard synergy (FICI) of antibiotics with SP-BIM; assay type: cell-based; details: for MIC: 24 h, antibiotic alone, read-out: MIC antibiotic only
[12] = MIC of the antibiotic in combination with SP-BIM 13
[13] = SP-BIM 9 in combination with the labelled antibiotic
[14] = SP-BIM 13 in combination with the labelled antibiotic
[15] = antibiotic in combination with SP-BIM 9
[16] = antibiotic in combination with SP-BIM 13
[17] = Streptococcus pneumonia (title: Streptococcus pyogenes), antibiotic + SP-BIM 9
[18] = Streptococcus pneumoniae, antibiotic + SP-BIM 13

`CC1(C)S[C@@H]2[C@H](NC(=O)[C@H](N)c3ccccc3)C(=O)N2[C@H]1C(=O)O` [Ampicillin, ampicillin] was tested, and the “MIC of antibiotic, No Compound” value [1] was greater than 250 µg/mL, the MIC ([2]; read-out: MIC antibiotic only, Escherichia coli, antibiotic alone) was greater than 250 µg/mL and the MIC ([2]; read-out: MIC antibiotic only, Escherichia coli, antibiotic alone, SP-BIM 9 checkerboard) was 250 µg/mL. The “MIC in combination: Antibiotic” value [2, 12] was 4, the “FIC of SP-BIM 9” value [2, 13] was 0.064 and the “FIC of SP-BIM 13” value [2, 14] was 0.5. For the same compound, the Interpretation ([2]; antibiotic + SP-BIM 9) was “Synergy (Synergy: FICI≤0.5)”, the “Σ FIC” value ([2]; antibiotic + SP-BIM 9) was less than 0.1 and the Interpretation ([2]; antibiotic + SP-BIM 13) was “Synergy (Synergy: FICI≤0.5)”. The “Σ FIC” value ([2]; antibiotic + SP-BIM 13) was less than 0.5, the “MIC in combination, Antibiotic” value [2, 15] was 4 µg/mL and the FIC of antibiotic ([2]; combination with SP-BIM 13) was 0.0. It also gave an FIC of antibiotic ([2]; in combination with SP-BIM 9) of 0.016, an MIC ([3]; SP-BIM 9 checkerboard) of 250 µg/mL and an MIC ([3]; SP-BIM 13 checkerboard) of 250 µg/mL. For the same compound, the “MIC in combination, SP-BIM 9” value ([3]; SP-BIM 9 concentration in combination with the labelled antibiotic) was 64 µg/mL, the “FIC of SP-BIM 9” value [3, 13] was 0.3 and the “FIC of SP-BIM 13” value [3, 14] was 0.5. The Interpretation ([3]; antibiotic + SP-BIM 9) was “Synergy (Synergy: FICI≤0.5)”, the “Σ FIC” value ([3]; antibiotic + SP-BIM 9) was no more than 0.3 and the Interpretation ([3]; antibiotic + SP-BIM 13) was “Additive (Additive: FICI>0.5-1.0)”. For the same compound, the “Σ FIC” value ([3]; antibiotic + SP-BIM 13) was less than 0.6, the “MIC in combination, Antibiotic” value [3, 15] was 0.1 µg/mL and the “MIC in combination, Antibiotic” value [3, 16] was 16 µg/mL. It also gave an FIC of antibiotic ([3]; in combination with SP-BIM 9) of 0.0, an FIC of antibiotic ([3]; in combination with SP-BIM 13) of 0.1 and an MIC ([4]; SP-BIM 9 checkerboard) of 0.5 µg/mL. For the same compound, the MIC ([4]; SP-BIM 13 checkerboard) was 0.5 µg/mL, the “FIC of SP-BIM 9” value [4, 13] was 0.50 and the “FIC of SP-BIM 13” value [4, 14] was 0.0. The Interpretation ([4]; antibiotic + SP-BIM 9) was “Additive (Additive: FICI>0.5-1.0)”, the “Σ FIC” value ([4]; antibiotic + SP-BIM 9) was less than 0.90 and the Interpretation ([4]; antibiotic + SP-BIM 13) was “Additive (Additive: FICI>0.5-1.0)”. For the same compound, the “Σ FIC” value ([4]; antibiotic + SP-BIM 13) was 1.0, the “MIC in combination, Antibiotic” value [4, 15] was 0.2 µg/mL and the “MIC in combination, Antibiotic” value [4, 16] was 0.5 µg/mL. For the same compound, the FIC of antibiotic ([4]; in combination with SP-BIM 9) was 0.40, the FIC of antibiotic ([4]; in combination with SP-BIM 13) was 1.0 and the “FIC of SP-BIM 9” value ([5]; Streptococcus pneumonia (title: Streptococcus pyogenes), SP-BIM 9 in combination with the labelled antibiotic) was 0.06. The Interpretation [5, 17] was “Synergy (Synergy: FICI≤0.5)”, the “Σ FIC” value [5, 17] was less than 0.06 and the “MIC in combination, Antibiotic” value ([5]; Streptococcus pneumonia (title: Streptococcus pyogenes), antibiotic in combination with SP-BIM 9) was 0.1 µg/mL. The FIC of antibiotic ([5]; Streptococcus pneumonia (title: Streptococcus pyogenes), in combination with SP-BIM 9) was 0.00, the MIC ([5]; Streptococcus pneumoniae, Streptococcus pneumonia (title: Streptococcus pyogenes), SP-BIM 9 checkerboard) was greater than 250 µg/mL and the MIC ([5]; Streptococcus pneumoniae, Streptococcus pneumoniae, SP-BIM 13 checkerboard) was 250 µg/mL. The “FIC of SP-BIM 13” value ([5]; Streptococcus pneumoniae, SP-BIM 13 in combination with the labelled antibiotic) was 0.3, the Interpretation [5, 18] was “Synergy (Synergy: FICI≤0.5)” and the “Σ FIC” value [5, 18] was less than 0.3. For the same compound, the “MIC in combination, Antibiotic” value ([5]; Streptococcus pneumoniae, antibiotic in combination with SP-BIM 13) was 2 µg/mL, the FIC of antibiotic ([5]; Streptococcus pneumoniae, in combination with SP-BIM 13) was 0.0 and the MIC ([6]; SP-BIM 9 checkerboard) was 8 µg/mL. For the same compound, the MIC ([6]; SP-BIM 13 checkerboard) was 8 µg/mL, the “FIC of SP-BIM 13” value [6, 14] was 0.3 and the Interpretation ([6]; antibiotic + SP-BIM 13) was “Synergy (Synergy: FICI≤0.5)”. For the same compound, the “Σ FIC” value ([6]; antibiotic + SP-BIM 13) was 0.3, the “MIC in combination, Antibiotic” value [6, 16] was 0.5 µg/mL and the FIC of antibiotic ([6]; in combination with SP-BIM 13) was 0.06. For the same compound, the MIC ([7]; 24 h, read-out: MIC antibiotic only) was greater than 250 µg/mL, the “MIC in combination: Antibiotic” value [7, 12] was 0.5 and the “FIC of SP-BIM 13” value [7, 14] was 0.5. For the same compound, the Interpretation ([7]; antibiotic + SP-BIM 13) was “Synergy (Synergy: FICI≤0.5)”, the “Σ FIC” value ([7]; antibiotic + SP-BIM 13) was less than 0.5 and the FIC of antibiotic ([7]; combination with SP-BIM 13) was 0.0. For the same compound, the MIC [8] was 63 µg/mL, the MIC [9] was 0.5 µg/mL and the “MIC of antibiotic, No Compound” value [10] was greater than 250 µg/mL. For the same compound, the MIC ([11]; SP-BIM 9 checkerboard) was 250 µg/mL, the MIC ([11]; SP-BIM 13 checkerboard) was 250 µg/mL and the “FIC of SP-BIM 9” value [11, 13] was 1. The “FIC of SP-BIM 13” value [11, 14] was 0.3, the Interpretation ([11]; antibiotic + SP-BIM 9) was “Synergy (Synergy: FICI≤0.5)” and the “Σ FIC” value ([11]; antibiotic + SP-BIM 9) was less than 1.0.
